Measurements as given in ChEMBL document CHEMBL1201862, “PubChem BioAssay data set” (2004).
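All cell lines were grown in 96-well plates and treated with compound for 48 hours. Here, GI50 denotes the concentration required for 50% inhibition of growth.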 Calls of active or inactive are those of the source. Cut-off read from the data, not from the text of the source: active = GI50 up to about 1.1 µM and inactive = higher.

Tests used:
Assay in all cases: inhibition of tumour cell growth, NCI panel, 48 h
EKVX = test system: EKVX
KM12 = test system: KM12
786-0 = test system: 786-0
OVCAR-8 = test system: OVCAR-8
HT-29 = test system: HT-29
RPMI-8226 = test system: RPMI-8226
SNB-75 = test system: SNB-75
NCI-H522 = test system: NCI-H522
K562 = test system: K562
HCC 2998 = test system: HCC 2998
NCI-H460 = test system: NCI-H460
SK-MEL-5 = test system: SK-MEL-5
SF-295 = test system: SF-295
HOP-62 = test system: HOP-62
OVCAR-4 = test system: OVCAR-4
SK-MEL-28 = test system: SK-MEL-28
DU-145 = test system: DU-145
HCT-116 = test system: HCT-116
SN12C = test system: SN12C
MDA-MB-435 = test system: MDA-MB-435
UO-31 = test system: UO-31
ACHN = test system: ACHN
CCRF-CEM = test system: CCRF-CEM
NCI/ADR-RES = test system: NCI/ADR-RES
Malme-3M = test system: Malme-3M
IGROV-1 = test system: IGROV-1
HCT-15 = test system: HCT-15
MDA-MB-231 = test system: MDA-MB-231
SK-OV-3 = test system: SK-OV-3
LOX IMVI = test system: LOX IMVI
UACC-257 = test system: UACC-257
BT-549 = test system: BT-549
A498 = test system: A498
TK-10 = test system: TK-10
OVCAR-3 = test system: OVCAR-3
MOLT-4 = test system: MOLT-4
MCF7 = test system: MCF7
OVCAR-5 = test system: OVCAR-5
SF-539 = test system: SF-539
SR = test system: SR
T47D = test system: T47D
COLO 205 = test system: COLO 205
SNB-19 = test system: SNB-19
U-251 = test system: U-251
UACC-62 = test system: UACC-62
HL-60 = test system: HL-60
NCI-H23 = test system: NCI-H23
HOP-92 = test system: HOP-92
MDA-N = test system: MDA-N
SK-MEL-2 = test system: SK-MEL-2
RXF 393 = test system: RXF 393
SF-268 = test system: SF-268
SW-620 = test system: SW-620
PC-3 = test system: PC-3
CAKI-1 = test system: CAKI-1
M14 = test system: M14
Hs-578T = test system: Hs-578T
A549 = test system: A549
NCI-H226 = test system: NCI-H226

NCCCN1c2ccccc2Sc2ccc(Cl)cc21
GI50 (EKVX): > 7.36 µM (inactive)
GI50 (KM12): 2.51 µM (inactive)
GI50 (786-0): 3.24 µM (inactive)
GI50 (OVCAR-8): 5.7 µM (inactive)
GI50 (HT-29): 2.55 µM (inactive)
GI50 (RPMI-8226): 3.95 µM (inactive)
GI50 (SNB-75): > 6.98 µM (inactive)
GI50 (NCI-H522): 3.2 µM (inactive)
GI50 (K562): 2.63 µM (inactive)
GI50 (HCC 2998): 2.12 µM (inactive)
GI50 (NCI-H460): 3.33 µM (inactive)
GI50 (SK-MEL-5): > 4.02 µM (inactive)
GI50 (SF-295): > 5.83 µM (inactive)
GI50 (HOP-62): > 10 µM (inactive)
GI50 (OVCAR-4): > 10 µM (inactive)
GI50 (SK-MEL-28): > 5.85 µM (inactive)
GI50 (DU-145): > 10 µM (inactive)
GI50 (HCT-116): 2.53 µM (inactive)
GI50 (SN12C): 6 µM (inactive)
GI50 (MDA-MB-435): 1.93 µM (inactive)
GI50 (UO-31): 7.8 µM (inactive)
GI50 (ACHN): 6.18 µM (inactive)
GI50 (CCRF-CEM): 3.19 µM (inactive)
GI50 (NCI/ADR-RES): > 5.4 µM (inactive)
GI50 (Malme-3M): 6.97 µM (inactive)
GI50 (IGROV-1): > 5.43 µM (inactive)
GI50 (HCT-15): 4.72 µM
GI50 (MDA-MB-231): 3.33 µM (inactive)
GI50 (SK-OV-3): > 6.56 µM (inactive)
GI50 (LOX IMVI): 3.29 µM (inactive)
GI50 (UACC-257): > 6.19 µM (inactive)
GI50 (BT-549): > 7.62 µM (inactive)
GI50 (A498): > 10 µM (inactive)
GI50 (TK-10): 5.96 µM (inactive)
GI50 (OVCAR-3): 5.3 µM (inactive)
GI50 (MOLT-4): 2.88 µM (inactive)
GI50 (MCF7): 1.76 µM (inactive)
GI50 (OVCAR-5): > 5.28 µM (inactive)
GI50 (SF-539): 5.22 µM (inactive)
GI50 (SR): 2.18 µM (inactive)
GI50 (T47D): > 5.36 µM (inactive)
GI50 (COLO 205): 1.81 µM (inactive)
GI50 (SNB-19): > 8.45 µM (inactive)
GI50 (U-251): 5.38 µM (inactive)
GI50 (UACC-62): > 7.31 µM (inactive)
GI50 (HL-60): 9.98 µM (inactive)
GI50 (NCI-H23): > 10 µM (inactive)
GI50 (HOP-92): > 10 µM (inactive)
GI50 (MDA-N): 3.69 µM (inactive)
GI50 (SK-MEL-2): > 6.21 µM (inactive)
GI50 (RXF 393): > 7.28 µM (inactive)
GI50 (SF-268): 8.17 µM (inactive)
GI50 (SW-620): 2.9 µM (inactive)
GI50 (PC-3): 4.17 µM (inactive)
GI50 (CAKI-1): > 8.24 µM (inactive)
GI50 (M14): 1.73 µM (inactive)
GI50 (Hs-578T): 5.01 µM (inactive)
GI50 (A549): 4.59 µM (inactive)
GI50 (NCI-H226): 9.95 µM (inactive)

COc1cc(C2c3cc4c(cc3OC(N3CCOCC3)C2C)OCO4)cc(OC)c1OC (configuration not stated)
GI50 (EKVX): 15.8 µM (inactive)
GI50 (KM12): 0.367 µM (active)
GI50 (786-0): 3.18 µM (inactive)
GI50 (OVCAR-8): 1.62 µM (inactive)
GI50 (HT-29): 0.237 µM (active)
GI50 (RPMI-8226): 0.778 µM (active)
GI50 (SNB-75): 5.19 µM (inactive)
GI50 (NCI-H522): 0.614 µM (active)
GI50 (K562): 0.397 µM (active)
GI50 (HCC 2998): 1.23 µM (inactive)
GI50 (NCI-H460): 1.34 µM (inactive)
GI50 (SK-MEL-5): 0.378 µM (active)
GI50 (SF-295): 0.519 µM (active)
GI50 (HOP-62): 3.63 µM (inactive)
GI50 (OVCAR-4): > 23.7 µM (inactive)
GI50 (SK-MEL-28): 17.2 µM (inactive)
GI50 (DU-145): 0.368 µM (active)
GI50 (HCT-116): 0.65 µM (active)
GI50 (SN12C): 4.18 µM (inactive)
GI50 (MDA-MB-435): 0.179 µM (active)
GI50 (UO-31): 1.86 µM (inactive)
GI50 (ACHN): 3.85 µM (inactive)
GI50 (CCRF-CEM): 0.457 µM (active)
GI50 (NCI/ADR-RES): 0.335 µM (active)
GI50 (Malme-3M): 3.79 µM (inactive)
GI50 (IGROV-1): 1.31 µM (inactive)
GI50 (HCT-15): 0.418 µM
GI50 (MDA-MB-231): 2.84 µM (inactive)
GI50 (SK-OV-3): 3.27 µM (inactive)
GI50 (LOX IMVI): 1.57 µM (inactive)
GI50 (UACC-257): 0.748 µM (active)
GI50 (BT-549): 4.29 µM (inactive)
GI50 (A498): 0.743 µM (active)
GI50 (TK-10): 4.42 µM (inactive)
GI50 (OVCAR-3): 0.589 µM (active)
GI50 (MOLT-4): 1.09 µM (active)
GI50 (MCF7): 0.51 µM (active)
GI50 (OVCAR-5): 3.68 µM (inactive)
GI50 (SF-539): 0.462 µM (active)
GI50 (SR): 0.466 µM (active)
GI50 (T47D): 0.323 µM (active)
GI50 (SNB-19): 0.838 µM (active)
GI50 (U-251): 0.893 µM (active)
GI50 (UACC-62): 0.537 µM (active)
GI50 (HL-60): 0.412 µM (active)
GI50 (NCI-H23): 1.38 µM (inactive)
GI50 (HOP-92): 0.7 µM (active)
GI50 (MDA-N): 0.148 µM (active)
GI50 (SK-MEL-2): 2.02 µM (inactive)
GI50 (RXF 393): 0.282 µM (active)
GI50 (SF-268): 10.5 µM (inactive)
GI50 (SW-620): 0.59 µM (active)
GI50 (PC-3): 1.19 µM (inactive)
GI50 (CAKI-1): 0.522 µM (active)
GI50 (M14): 0.708 µM (active)
GI50 (Hs-578T): 0.226 µM (active)
GI50 (A549): 1.56 µM (inactive)
GI50 (NCI-H226): 2.6 µM (inactive)
